Measured values: patent US20110039762A1, “TARGETED ANTIMICROBIAL MOIETIES” (C3 JIAN, INC., priority 2009, published 2011)
“Also recorded” adds a separate entry of the source.

Columns and labels:
[1] = tested on: microorganisms; experiment: Peptides having multiple activities (targeting/binding, antimicrobial, growth or phenotype altering); design: key: B: targeting/binding activity;; M: antimicrobial activity;; G: Growth or phenotype altering
Text: In certain embodiments, peptides described herein can have multiple activities. Thus for example, a peptide can have both binding/targeting activity and antimicrobial activity. Such peptides can be used, e.g., in a chimeric construct, for any or all of these properties. Thus, for example, a peptide designated “B” in Table 8 can be used as a targeting peptide. If it is also designated G or M it can also be used for antimicrobial activity.

[2] = tested on: microorganisms (e.g., bacteria, yeasts, fungi); experiment: Targeting peptide binding to target microorganisms (Table 3); conditions: preferably 1x PBS; for Target(s): microorganism(s) the targeting peptide binds; for Target(s) (microorganisms bound by the targeting peptide): peptide binding in aqueous buffers varied by peptide solubility
[3] = tested on: S. pneumoniae; experiment: Kill or inhibit growth/proliferation; morphology, biofilm and growth disruption (Tables 5, 6); format: cell-based, Streptococcus pneumoniae; design: key: A: Peptide aggregates; B: Less hyphal formation; Clumps; Diffuse clumps and small polyps; F: Diffuse growth; H: Thin; I: Growth inhibition; Microcolony formation; Rippled; Small polyps; Thick; W: Halo formation on top, microlonies on bottom; further: test concentration or dose not given here
[4] = peptide binding conducted in aqueous buffers varied by peptide solubility

| Substance | Activities [1] | Target(s) [2, 4] | Organism, effect [3] | Target(s) (microorganisms bound by the targeting peptide) [2] | Organism, effect (morphology, biofilm and growth disruption) [3] | Target(s) ([2]; binding in aqueous buffers depending on peptide solubility) |
| --- | --- | --- | --- | --- | --- | --- |
| HKNKLNIPHIKS [PF-477] | G B | S. epidermidis; also recorded: M. luteus; also recorded: C. albicans; also recorded: S. pneumoniae; also recorded: C. jeikeium; also recorded: C. jejuni | S. pneumoniae (H) |  |  |  |
| LHVIRPRPELSELKFPITKILKVNKQGLKK [PF-752] | G B |  |  | S. epidermidis and E. coli and MRSA and S. pneumoniae and E. faecalis | S. pneumoniae (C) |  |
| PF-144: peptide having multiple activities (RSGQPVGRPSRRAWLR; Peptide with targeting and/or antimicrobial activity) | G B |  | S. pneumoniae (H) |  |  | S. epidermidis and M. luteus and E. coli and C. albicans and MRSA and S. pneumoniae and E. faecalis and C. jeikeium |
| PF-414: peptide having multiple activities (LLNKKLE; Peptide with targeting and/or antimicrobial activity) | G B | E. coli; also recorded: C. albicans; also recorded: C. jeikeium | S. pneumoniae (H) |  |  |  |
| PF-416: peptide having multiple activities (SKAGLYGKIERSDKRE; Peptide with targeting and/or antimicrobial activity) | G B | S. pneumoniae; also recorded: C. jeikeium | S. pneumoniae (H) |  |  |  |
| PF-421: peptide having multiple activities (KHCFEITDKTDVV; Peptide with targeting and/or antimicrobial activity) | G B | C. jeikeium | S. pneumoniae (H) |  |  |  |
| PF-423: peptide having multiple activities (AGKKERLLSFREQFLNKNKKK; Peptide with targeting and/or antimicrobial activity) | G B | S. epidermidis; also recorded: M. luteus; also recorded: E. coli; also recorded: S. pneumoniae; also recorded: E. faecalis; also recorded: C. jeikeium | S. pneumoniae (H) |  |  |  |
| PF-465: peptide having multiple activities (chain 1 KPVGKALEEIADGKIEPVVPKEYLG; chain 2 KPVGKALEEIADGKIEPVVPKEYLG; Peptide with targeting and/or antimicrobial activity) | G B |  | S. pneumoniae (H) |  |  |  |
| PF-479: peptide having multiple activities (chain 1 AYILKRREEKNK; chain 2 AYILKRREEKNK; Peptide with targeting and/or antimicrobial activity) | G B |  | S. pneumoniae (C) |  |  |  |
| PF-482: peptide having multiple activities (chain 1 LVGYVRTSGTVRSYKIN; chain 2 LVGYVRTSGTVRSYKIN; Peptide with targeting and/or antimicrobial activity) | G B |  | S. pneumoniae (S) |  |  |  |
| PF-516: peptide having multiple activities (ASKQASKQASKQASKQ; Peptide with targeting and/or antimicrobial activity) | G |  | S. pneumoniae (H) |  |  |  |
| PF-537: peptide having multiple activities (chain 1 LANDYYKKTKKSW; chain 2 LANDYYKKTKKSW; Peptide with targeting and/or antimicrobial activity) | G B |  | S. pneumoniae (C) |  |  |  |
| PF-704 (chain 1 APAARAAL; chain 2 APAARAAL; Peptide with targeting and/or antimicrobial activity) |  |  |  | Mycobacteria spp | S. pneumoniae (C) |  |
